Experimental data taken from patent US11034980B2, “Microbial engineering for the production of isoprenoids” (Massachusetts Institute of Technology, priority 2018, dated 2021).
Read-outs that look alike come from different tables or passages of the source.

How the values were obtained:
[1] = target: Geranylgeranyl pyrophosphate synthase (GGPPS) (Taxus canadensis, UniProt Q9ZPM3); assay: GGPPS activity by pyrophosphate formation (EnzChek pyrophosphate assay); type: biochemical; conditions: reaction IPP + FPP; IPP varied with FPP held at 100 μM
Protocol: A single colony from each strain containing one plasmid for the expression of a single enzyme was inoculated into 5 mL of sterile LB media (BD Sciences) with kanamycin and grown overnight at 37° C. One milliliter was then inoculated into a 1 L flask containing 200 mL of sterile SOB media (AMERSCO) with kanamycin. The culture was grown at 30° C. until an optical density (OD) of 0.4-0.6 (λ=600 nm). At this point protein production was induced by the addition of IPTG for a final concentration of 0.1 mM and continued at 30° C. for 3 h. Cells were harvested by centrifugation at 3750 rpm in an Allegra X12R centrifuge (Beckman-Coulter). […] Enzymes were then exchanged into 50 mM Tris-HCl pH 7.5 using 10 kDa Microseps (Millipore) by centrifugation and repeated buffer exchanges until the imidazole was calculated to be under 1 mM. […] Enzyme concentration was determined using a bicinchoninic acid (BCA) assay kit from Pierce using bovine serum albumin as a standard (BSA). […] The kinetics for CK were previously determined as described. The kinetics for IPK were determined by ATP consumption using a pyruvate kinase (PK) lactate dehydrogenase (LDH) coupled assay (FIGS. 16A & 16B). […] NADH was made fresh each time and the appropriate concentration was determined by constructing a standard curve using a SpectraMax M3 and selecting the highest value in the linear range. […]

[2] = target: Farnesyl pyrophosphate synthase (IspA) (Escherichia coli, UniProt P22939); conditions: Ref Ku et al., 2005, Weaver et al., 2015, cited from earlier work
[3] = tested on: Geranylgeranyl pyrophosphate synthase (GGPPS); conditions: reported elsewhere (Hefner et al., 1998); cited from earlier work
[4] = target: T1, isopentenyl phosphate kinase (IPK) (Arabidopsis thaliana, UniProt Q8H1F7); assay: IPK kinetics by ATP consumption, PK-LDH coupled NADH assay; type: biochemical; conditions: 10 mM ATP, 30° C., pH 7.4
T1 construct: Arabidopsis thaliana (AAN12957.1), codon optimized; made in house; host or cells: E. coli BL21 (DE3)
T1 sequence (Q8H1F7 1-332): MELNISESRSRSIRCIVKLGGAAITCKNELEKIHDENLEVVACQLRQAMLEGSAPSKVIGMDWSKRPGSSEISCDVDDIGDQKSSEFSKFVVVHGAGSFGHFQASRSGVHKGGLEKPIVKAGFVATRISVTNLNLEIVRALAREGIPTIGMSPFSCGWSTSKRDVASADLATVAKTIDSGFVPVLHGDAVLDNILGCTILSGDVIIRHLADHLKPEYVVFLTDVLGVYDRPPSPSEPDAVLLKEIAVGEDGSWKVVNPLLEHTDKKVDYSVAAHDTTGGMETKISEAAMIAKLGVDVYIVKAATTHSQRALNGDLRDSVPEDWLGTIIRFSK
Protocol: A single colony from each strain containing one plasmid for the expression of a single enzyme was inoculated into 5 mL of sterile LB media (BD Sciences) with kanamycin and grown overnight at 37° C. One milliliter was then inoculated into a 1 L flask containing 200 mL of sterile SOB media (AMERSCO) with kanamycin. The culture was grown at 30° C. until an optical density (OD) of 0.4-0.6 (λ=600 nm). At this point protein production was induced by the addition of IPTG for a final concentration of 0.1 mM and continued at 30° C. for 3 h. Cells were harvested by centrifugation at 3750 rpm in an Allegra X12R centrifuge (Beckman-Coulter). The supernatant was removed and the cell pellets were frozen at −20° C. until purification. Proteins were visualized by SDS-PAGE performed accordingly to the manufacturer's guidelines (Bio-rad). Gradient (4-20%) gels were purchased from Biorad, as were the Kaleidoscope pre-stained protein ladder, Laemmli 4× sample buffer, Tris-glycine-SDS buffer, and mini-protean electrophoresis chambers. Gels were stained using Instant-Blue (Expedeon). Protein concentrations were very roughly estimated from the gel using Image J (NIH) in order to determine an appropriate amount of resin for purification. Protein Purification All purification steps were performed in a single day on ice and in a cold room when possible. Cell pellets were thawed and resuspended in 30 mL of NPI-10 buffer (50 mM NaH2PO4, 300 mM NaCl, 10 mM imidazole, pH 8.0) and supplemented with 0.5 mM PMSF immediately prior to cell lysis. Cells were lysed by 2-3 passages through an EmulsiFlex-C5 high-pressure homogenizer (Avestin). Lysates were then centrifuged at 4 C for 15 min to remove cellular debris. The clarified lysate was loaded onto a Ni-NTA resin (Gold Bio, capacity 50 mg/mL) which was housed in a gravity column (Thermofisher) and was pre-equilibrated with 10 column volumes (CV) of NPI-10 buffer. The column was then washed with 10 CV of NPI-20 buffer (20 mM imidazole). The enzyme was then eluted from the column by 3 CV using NPI-250 buffer (250 mM imidazole). Enzymes were then exchanged into 50 mM Tris-HCl pH 7.5 using 10 kDa Microseps (Millipore) by centrifugation and repeated buffer exchanges until the imidazole was calculated to be under 1 mM. […] Enzyme concentration was determined using a bicinchoninic acid (BCA) assay kit from Pierce using bovine serum albumin as a standard (BSA). […] The kinetics for CK were previously determined as described. The kinetics for IPK were determined by ATP consumption using a pyruvate kinase (PK) lactate dehydrogenase (LDH) coupled assay (FIGS. 16A & 16B). […] NADH was made fresh each time and the appropriate concentration was determined by constructing a standard curve using a SpectraMax M3 and selecting the highest value in the linear range. […]

[5] = target: T2, CK (Saccharomyces cerevisiae, UniProt P20485); assay: Metabolic control analysis (lin-log elasticities) of multi-enzyme perturbation study; type: biochemical; conditions: lin-log kinetics, 60 min, 5 mM isoprenol, 10 mM ATP
T2 construct: S. cerevisiae (AAA34499.1), codon optimized; made in house; host or cells: E. coli BL21 (DE3)
T2 sequence (P20485 1-582): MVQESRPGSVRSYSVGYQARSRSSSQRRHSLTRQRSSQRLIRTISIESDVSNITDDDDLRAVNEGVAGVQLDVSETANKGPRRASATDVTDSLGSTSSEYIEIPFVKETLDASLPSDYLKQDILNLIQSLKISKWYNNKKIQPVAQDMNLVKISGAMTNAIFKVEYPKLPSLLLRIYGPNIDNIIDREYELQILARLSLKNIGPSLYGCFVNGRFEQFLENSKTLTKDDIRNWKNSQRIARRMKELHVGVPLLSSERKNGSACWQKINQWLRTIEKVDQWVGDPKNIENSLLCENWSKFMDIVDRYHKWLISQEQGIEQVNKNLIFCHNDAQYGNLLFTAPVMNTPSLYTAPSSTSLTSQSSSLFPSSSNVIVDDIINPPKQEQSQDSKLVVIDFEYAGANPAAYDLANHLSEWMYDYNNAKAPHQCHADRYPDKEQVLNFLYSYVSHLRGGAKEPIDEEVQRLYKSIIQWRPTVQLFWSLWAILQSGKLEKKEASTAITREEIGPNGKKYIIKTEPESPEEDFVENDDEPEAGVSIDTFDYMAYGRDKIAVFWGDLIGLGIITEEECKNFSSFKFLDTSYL
Protocol: (§1) In order to identify a PSS, an in vitro reaction was run, using the optimal enzyme concentrations, as predicted from the initial perturbation study, using a “main interactions only” linear regression model. A time profile of metabolic intermediate concentrations was constructed (FIG. 32). […] The reaction was stopped at 60 min in the repeat experiment.
(§2) [formula] where i represents the unit vector, v represents the relative flux compared to the reference state flux J^0, E^x0 represents the elasticity matrix for the metabolic intermediate concentrations (x^0) in relation to the enzyme concentration compared to the reference state as designed by e/e^0 and the relative intermediate metabolic concentrations compared to the reference state (x/x^0).
(§3) By applying this model to the data generated in the large perturbation study and alternating the designated reference state, 25 sets of elasticities were generated, using the maximum connectivity assumption to calculate the elasticity of every enzyme for each measured metabolite.

[6] = target: T3, IPK (Arabidopsis thaliana, UniProt Q8H1F7); assay: as above; type: biochemical; conditions: lin-log kinetics, 60 min, 5 mM isoprenol, 10 mM ATP
T3 construct: Arabidopsis thaliana (AAN12957.1), codon optimized; made in house; host or cells: E. coli BL21 (DE3)
T3 sequence (Q8H1F7 1-332): T1 sequence (Q8H1F7 1-332)
Protocol: as §1, §2, §3

[7] = target: T4, Taxadiene Synthase (TDS) (Taxus brevifolia, UniProt Q41594); assay: TDS activity by pyrophosphate assay; type: biochemical; conditions: 30° C., pH 7.4
T4 construct: truncated first 60 amino acids, methionine added; made in house; host or cells: E. coli BL21 (DE3)
T4 sequence (Q41594 61-862 limits assumed): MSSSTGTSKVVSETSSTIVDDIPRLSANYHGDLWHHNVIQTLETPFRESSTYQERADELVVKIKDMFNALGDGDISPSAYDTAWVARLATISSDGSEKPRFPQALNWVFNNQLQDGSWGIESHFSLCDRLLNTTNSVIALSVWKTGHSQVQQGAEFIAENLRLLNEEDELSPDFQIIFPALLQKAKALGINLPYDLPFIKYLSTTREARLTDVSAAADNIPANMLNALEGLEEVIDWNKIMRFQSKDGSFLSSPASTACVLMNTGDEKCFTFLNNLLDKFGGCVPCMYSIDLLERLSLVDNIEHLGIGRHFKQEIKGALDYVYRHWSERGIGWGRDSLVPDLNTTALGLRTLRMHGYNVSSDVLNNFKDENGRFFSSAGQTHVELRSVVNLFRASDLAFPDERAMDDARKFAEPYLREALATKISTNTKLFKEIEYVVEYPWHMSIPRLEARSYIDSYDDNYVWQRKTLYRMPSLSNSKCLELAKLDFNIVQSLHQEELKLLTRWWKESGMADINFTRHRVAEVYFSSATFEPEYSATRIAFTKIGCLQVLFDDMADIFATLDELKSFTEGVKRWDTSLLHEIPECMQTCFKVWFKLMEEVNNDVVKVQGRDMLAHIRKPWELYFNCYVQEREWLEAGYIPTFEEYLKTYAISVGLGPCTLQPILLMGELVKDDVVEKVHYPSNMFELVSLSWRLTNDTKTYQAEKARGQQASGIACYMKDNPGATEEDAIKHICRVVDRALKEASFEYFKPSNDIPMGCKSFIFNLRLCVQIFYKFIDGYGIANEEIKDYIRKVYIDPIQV

Chain of Farnesyl pyrophosphate synthase (IspA) (P22939 whole entry): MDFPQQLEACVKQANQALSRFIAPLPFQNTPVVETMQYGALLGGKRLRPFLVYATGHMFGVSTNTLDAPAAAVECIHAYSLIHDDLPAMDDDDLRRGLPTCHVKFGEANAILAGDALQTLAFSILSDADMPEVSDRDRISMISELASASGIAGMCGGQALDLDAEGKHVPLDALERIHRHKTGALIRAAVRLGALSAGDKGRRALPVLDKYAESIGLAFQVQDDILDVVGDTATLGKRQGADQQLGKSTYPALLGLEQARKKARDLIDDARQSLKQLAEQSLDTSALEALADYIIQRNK
Chain of Geranylgeranyl pyrophosphate synthase (GGPPS) (Taxus canadensis, UniProt Q9ZPM3) (Q9ZPM3 entry or part of it): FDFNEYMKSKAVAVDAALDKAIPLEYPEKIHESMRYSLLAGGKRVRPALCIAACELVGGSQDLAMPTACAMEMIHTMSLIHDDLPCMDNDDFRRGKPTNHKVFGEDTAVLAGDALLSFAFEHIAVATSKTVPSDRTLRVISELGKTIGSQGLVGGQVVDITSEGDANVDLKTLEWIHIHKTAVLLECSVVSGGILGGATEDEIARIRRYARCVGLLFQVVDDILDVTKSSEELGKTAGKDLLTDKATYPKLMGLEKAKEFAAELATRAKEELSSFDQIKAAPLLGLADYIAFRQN

C=C(C)CCO[P@@](=O)(O)OP(=O)(O)O [IPP, isopentenyl pyrophosphate]
Km [1]: 13.5 µM
Km ([2]; reaction IPP + DMAPP): 29.3 µM
Km ([2]; reaction IPP + GPP): 5.5 µM
Km [3]: 6 µM

C=C(C)CCOP(=O)(O)O [IP, isopentenyl monophosphate]
Km [4]: 21.7 µM
kcat [4]: 45.5 S^−1
effect on CK activity (elasticity) [5]: slightly inhibitory
effect on IPK activity (elasticity) [6]: stimulatory

CC(C)=CCC/C(C)=C/CC/C(C)=C/CC/C(C)=C/COP(=O)(O)OP(=O)(O)O [GGPP, geranylgeranyl diphosphate]
Km [7]: 43 µM
kcat [7]: 23.1 S^−1
